Laboratory results as given in patent publication US20110195128A1, “TREATING OR PREVENTING GOUT” (priority 2008, published 2011).

Columns and labels:
IL-1β [1] = experiment: THP-1 cell assay analysed by ELISA, MSU crystal-stimulated IL-1β release; type: cell-based; details: THP-1 cells
Protocol: (§1) THP-1 cells were cultured in RPMI with 10% FCS, penicillin, streptomycin, glutamine and pyruvate. At day −1, 1.5×10^6 THP-1 cells were plated in 24 well plates. These cells were cultured in the presence or absence of 5 μM phorbol 12-myristate 13-acetate (PMA) for three hours. PMA is required for NALP-3 inflammasome activation and IL-1β production in response to MSU crystals. On day 0, medium was replaced in all wells. Cells were then pre-incubated with vehicle control, test substance at three concentrations, or diclofenac control (10 μg/ml) for 4 hours. MSU crystals were then added (0.5 mg/mL) Supernatants were harvested for ELISA after 16 hours. ELISA was conducted to determine inhibition of IL-1β expression. It has been reported that this cytokine is a pivotal regulator of the inflammatory response to MSU crystals (Chen et al 2006 and Martinon et al 2006). Inhibition of IL-8 expression was also determined.
(§2) A mean change in cytokine expression from cells treated with control vehicle pooled data from all experiments (10 μg/ml). Values represent mean (standard error) from at least three experiments in which cytokine release from wells treated with the highest concentration of milk extract has been normalized to vehicle treated wells.
(§3) The results are shown in Table 2 below and in FIGS. 1 and 2. Table 3 contrasts the result for GMP when the MSU was replaced with a different antigen, LPS. […]

IL-8 = experiment: THP-1 cell assay analysed by ELISA, MSU crystal-stimulated IL-8 release; type: cell-based; details: THP-1 cells, PMA, 4 h pre-incubation, MSU crystals 0.5 mg/mL, supernatant after 16 h; highest concentration of test substance; mean of at least three experiments; * p<0.05 vs vehicle
Protocol: as §1, §2, §3

IL-1β [2] = experiment: THP-1 cell assay analysed by ELISA, MSU replaced with LPS, IL-1β production; type: cell-based; details: THP-1 cells, normalized to vehicle
Protocol: as §1
The results are shown in Table 2 below and in FIGS. 1 and 2. Table 3 contrasts the result for GMP when the MSU was replaced with a different antigen, LPS. The casein hydrolysate tested was produced by extensively hydrolysing casein (to a degree of hydrolysis of 33%) using the enzymes pancreatin and corolase. […]

urate peritonitis model = experiment: Murine urate peritonitis model, total cellular influx; type: in vivo, CD1 mice; details: mice fed for a week before i.p. 3 mg MSU crystals; lavage after four hours; GMP 0.05-0.5 g per kg in drinking water; G600 precursor 12.5-100% of total fat in diet
Protocol: Adult male CD1 mice (Vernon Jansen Unit, University of Auckland) were housed in conventional facilities with temperature control and 12 hour light/dark cycles. All protocols involving live animals were subjected to ethical review and a range of welfare score sheets and action plans were used to monitor and minimize the impact of the study on the animals. Mice were fed milk extracts for a week prior to induction of peritonitis. At least eight mice were used for each experimental condition. GMP was dissolved in drinking water at 0.05, 0.1, 0.25 and 0.5 g per kg mouse. The G600™ milk fat extract precursor (Batch 2, freeze dried, no added lactose) was incorporated into rodent chow at 12.5, 25, 50 and 100% of total fat in diet.
The murine urate peritonitis protocol was based on the model described by Getting et al (1997). Adult male CD1 mice weighing 22-28 g were selected for the urate peritonitis model. Mice were anaesthetized using urethane. Peritonitis was induced by intraperitoneal injection of 3 mg MSU crystals resuspended in 250 μl PBS. The body temperature of anaesthetized mice was monitored and maintained at 37° C. using a heat pad, and hydration was maintained by subcutaneous injection of 0.9% NaCl (Normal Saline) at a volume of […] body weight two hours after initial treatments and every hour thereafter. […]

IL-1β gene expression = experiment: THP-1 cell assay analysed by RT-PCR, IL-1β gene expression; type: cell-based; details: THP-1 cells, treatment as in Example 1 (FIG. 5)
Source text: THP-1 assays were used to study IL-1β and IL-8 gene expression by RT-PCR, using the same treatment protocols as described for the THP-1 ELISA assay in Example 1 above and the RT-PCR protocol described in Dalbeth et al, 2008.

[3] = cited from earlier work

| Molecule | IL-1β (cytokine release normalized to vehicle treated wells) (IL-1β [1]; PMA, 4 h pre-incubation, MSU crystals 0.5 mg/mL, supernatant after 16 h, highest concentration of test substance, mean of at least three experiments, * p<0.05 vs vehicle) | MSU crystal-stimulated IL-1β production (IL-1β [1]; normalized to vehicle, * p<0.05) | IL-8 (cytokine release normalized to vehicle treated wells) (IL-8) | LPS-stimulated IL-1β production (IL-1β [2]) | total cellular influx in the urate peritonitis model (urate peritonitis model) | IL-1β gene expression (IL-1β gene expression) | adverse effects ([3]; all patients, within 24 hours of taking this medication) | reduction in pain in joints ([3]; gout patients, within 48 hours) [%] |
| --- | --- | --- | --- | --- | --- | --- | --- | --- |
| Glycomacropeptide [GMP] | 0.72* | 0.72* | 1.22 | 0.94 | significant inhibition | inhibits | – | – |
| COc1cc2c(c(OC)c1OC)-c1ccc(OC)c(=O)cc1[C@@H](NC(C)=O)CC2 [colchicine, Colchicine] | – | – | – | – | – | – | developed diarrhoea and/or vomiting | 50 |
